Measurements taken from ChEMBL document CHEMBL4402568, “Antiepileptic Drug Carbamazepine Binds to a Novel Pocket on the Wnt Receptor Frizzled-8” (J Med Chem, 2020).
The source made the active and inactive calls. The calls are words filed in the database; no cut-off is given here.

Columns and labels:
[1] = target: Frizzled-8 (Mus musculus) (UniProt Q61091); conditions: 8 to 64 uM
Description: Inhibition of full length mouse Frizzled-8 transfected in Frizzled-1/2/7 knockout HEK293T cells using lentiviral expression system cotransfected with Renilla luciferase assessed as reduction in Wnt3a signaling by measuring luciferase activity at 8 to 64 uM measured after 24 hrs by Dual-Glo luciferase reporter assay

[2] = target: Frizzled-7 (Homo sapiens) (UniProt O75084); test: Binding affinity to immobilized human Frizzled-7 CRD (Q33 to G173 resideus) transfected with pDisplay_BirA-ER plasmid in HEK293T cells for biotinylation by surface plasmon resonance assay
[3] = target: Frizzled-8 (Mus musculus) (UniProt Q61091); test: Binding affinity to immobilized mouse C-terminal Rhinovirus 3C cleavage site-fused 6xHis-tagged Frizzled-8 CRD (Q33 to G173 resideus) transfected with pDisplay_BirA-ER plasmid in HEK293T cells for biotinylation assessed as protein-compound complex formation at 5 to 50 uM by surface plasmon resonance assay
[4] = target: Frizzled-5 (Homo sapiens) (UniProt Q13467); test: Binding affinity to immobilized human Frizzled-5 CRD (P31 to Y150 resideus) transfected with pDisplay_BirA-ER plasmid in HEK293T cells for biotinylation by surface plasmon resonance assay
Chain of Frizzled-5 (Homo sapiens) (Q13467 whole entry): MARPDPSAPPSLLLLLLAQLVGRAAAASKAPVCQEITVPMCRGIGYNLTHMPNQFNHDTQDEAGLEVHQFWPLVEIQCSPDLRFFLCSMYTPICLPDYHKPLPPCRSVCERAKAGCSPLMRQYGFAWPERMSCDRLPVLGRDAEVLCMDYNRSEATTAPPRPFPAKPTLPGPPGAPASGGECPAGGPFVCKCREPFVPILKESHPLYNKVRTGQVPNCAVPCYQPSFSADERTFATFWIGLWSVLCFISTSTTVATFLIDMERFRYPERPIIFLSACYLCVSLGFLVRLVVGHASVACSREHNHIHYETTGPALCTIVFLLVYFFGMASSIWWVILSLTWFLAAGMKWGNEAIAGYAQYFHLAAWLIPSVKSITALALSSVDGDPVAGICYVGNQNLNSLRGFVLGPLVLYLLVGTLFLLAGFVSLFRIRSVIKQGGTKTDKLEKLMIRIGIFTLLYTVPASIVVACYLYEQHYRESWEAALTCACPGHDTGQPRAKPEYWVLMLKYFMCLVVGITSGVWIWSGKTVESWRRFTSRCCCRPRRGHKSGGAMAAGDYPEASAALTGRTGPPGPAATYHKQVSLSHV

Chain of Frizzled-8 (Mus musculus) (Q61091 whole entry, the tested form may be a part): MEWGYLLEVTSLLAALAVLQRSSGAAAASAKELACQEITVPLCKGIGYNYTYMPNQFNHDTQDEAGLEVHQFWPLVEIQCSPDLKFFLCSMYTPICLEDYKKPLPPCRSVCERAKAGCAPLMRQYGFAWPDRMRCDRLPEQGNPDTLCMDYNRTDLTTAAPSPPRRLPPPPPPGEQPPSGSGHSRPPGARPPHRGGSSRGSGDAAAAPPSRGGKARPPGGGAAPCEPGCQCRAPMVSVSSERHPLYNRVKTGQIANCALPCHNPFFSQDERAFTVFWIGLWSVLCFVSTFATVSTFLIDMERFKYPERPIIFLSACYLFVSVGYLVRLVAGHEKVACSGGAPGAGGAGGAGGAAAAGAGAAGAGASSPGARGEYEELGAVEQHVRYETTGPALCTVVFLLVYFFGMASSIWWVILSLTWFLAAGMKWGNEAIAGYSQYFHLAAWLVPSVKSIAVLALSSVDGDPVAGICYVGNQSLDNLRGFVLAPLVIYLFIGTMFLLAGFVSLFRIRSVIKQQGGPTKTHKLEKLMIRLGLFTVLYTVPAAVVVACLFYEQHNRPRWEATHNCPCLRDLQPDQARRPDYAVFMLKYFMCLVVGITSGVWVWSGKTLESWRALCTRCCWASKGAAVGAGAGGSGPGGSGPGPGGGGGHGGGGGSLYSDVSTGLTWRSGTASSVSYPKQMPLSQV

Row | inhibition [1] | Activity [2] | Activity [3] | Activity [4] | Compound
1 | Active | inactive | Active | inactive | NC(=O)N1c2ccccc2C=Cc2ccccc21
2 |  |  | inactive |  | CCN(CC)CCCC(C)Nc1c2ccc(Cl)cc2nc2ccc(OC)cc12 (stereo not given)
